# Laboratory results taken from patent US11274124B2, “Tubulysin analogues as anticancer agents and payloads for antibody-drug conjugates and methods of treatment therewith” (William Marsh Rice University, priority 2017, dated 2022).
# Read-outs that look alike come from different tables or passages of the source.
# How the values were obtained:
# [1] = system: MES SA DX (MES SA cell line with marked multi-drug resistance); assay: In vitro cytotoxicity assay (CellTiter-Glo, 72 hours), MES SA DX; details: for IC50: Homo sapiens, MES-SA, 72 h
# [2] = system: MES SA (uterine sarcoma cell line); assay: In vitro cytotoxicity assay (CellTiter-Glo, 72 hours), MES SA; assay type: cell-based; details: Homo sapiens, MES-SA, 72 h
# [3] = system: MES SA, MES SA DX and HEK 293T cells; assay: In vitro cytotoxicity assay, structure-activity discussion over the cell lines tested; details: refers to Tables 2 and 3
# [4] = system: HEK 293T (human embryonic kidney cancer cell line); assay: In vitro cytotoxicity assay (CellTiter-Glo, 72 hours), HEK 293T; assay type: cell-based; details: Homo sapiens, HEK-293T, 72 h
# [5] = read-out: MES SA DX, IC50 Value in nM
# [6] = read-out: MES SA, IC50 Value in nM
# [7] = read-out: HEK 293T, IC50 Value in nM
SMILES,"IC50 ([1]; read-out: MES SA DX, IC50)","IC50 [1, 5]","IC50 ([2]; read-out: MES SA, IC50)","IC50 [2, 6]","cytotoxicity potency (in words, structure-activity discussion) [3]","IC50 ([4]; read-out: HEK 293T, IC50)","IC50 [4, 7]",cytotoxicities against the marked drug resistant cancer cell line MES SA DX (in words) [1]
"CC[C@H](NC(=O)[C@H]1CCCCN1C)C(=O)N(C)[C@H](C[C@@H](OC(C)=O)c1nc(C(=O)N[C@@H](Cc2ccccc2)C[C@H](C)C(=O)O)cs1)C(C)C [Tb94, (2S,4R)-4-[({2-[(1R,3R)-1-acetoxy-4-methyl-3-{methyl[(2S)-2-({[(2R)-1-methylpiperidin-2-yl]carbonyl}amino)butanoyl]amino}pentyl]-1,3-thiazol-4-yl}carbonyl)amino]-2-methyl-5-phenylpentanoic acid]",89.8 nM,89.8 nM,0.46 nM,0.46 nM,significant potencies,0.4 nM,0.4 nM,
"COC(=O)[C@@H](C)C[C@H](Cc1ccccc1)NC(=O)c1csc(C(=O)C[C@H](C(C)C)N(C)C(=O)[C@@H](NC(=O)[C@H]2CCCCN2C)C(C)C)n1 [Tb63, Methyl (2S,4R)-2-methyl-4-[({2-[(3R)-4-methyl-3-{methyl[(2S)-3-methyl-2-({[(2R)-1-methylpiperidin-2-yl]carbonyl}amino)butanoyl]amino}pentanoyl]-1,3-thiazol-4-yl}carbonyl)amino]-5-phenylpentanoate]",,> 1000 nM,,> 1000 nM,significant reduction in potency,,> 1000 nM,
"CC(=O)O[C@H](C[C@H](C(C)C)N(C)C(=O)[C@@H](NC(=O)[C@H]1CCCN1C)C(C)C)c1nc(C(=O)N[C@@H](Cc2ccccc2)C[C@H](C)C(=O)O)c(C)s1 [Tb71, (2S,4R)-4-[({2-[(1R,3R)-1-Acetoxy-4-methyl-3-{methyl[(2S)-3-methyl-2-({[(2R)-1-methylpyrrolidin-2-yl]carbonyl}amino)butanoyl]amino}pentyl]-5-methyl-1,3-thiazol-4-yl}carbonyl)amino]-2-methyl-5-phenylpentanoic acid]",,> 1000 nM,,1.42 nM,significant loss of potency,,0.408 nM,
"CC[C@H](C)[C@H](NC(=O)[C@H]1CCCCN1C)C(=O)N(C)[C@H](CCc1nc(C(=O)N[C@@H](Cc2ccccc2)C[C@H](C)C(=O)O)cs1)C(C)C [PTb-D43, pretubulysin D, reference compound]",,,,,significant reduction in potency,,,
"CCCC[C@H](NC(=O)[C@H]1CCCN1C)C(=O)N(C)[C@H](C[C@@H](OC(C)=O)c1nc(C(=O)N[C@@H](Cc2ccccc2)C[C@H](C)C(=O)OCC)cs1)C(C)C [Tb96, Ethyl (2S,4R)-4-[({2-[(1R,3R)-1-acetoxy-4-methyl-3-{methyl[(2S)-2-({[(2R)-1-methylpyrrolidin-2-yl]carbonyl}amino)hexanoyl]amino}pentyl]-1,3-thiazol-4-yl}carbonyl)amino]-2-methyl-5-phenylpentanoate]",,> 1000 nM,,10.5 nM,lack of or significantly lower cytotoxicities,,5.26 nM,
"CCOC(=O)[C@@H](C)C[C@H](Cc1ccccc1)NC(=O)c1csc([C@@H](C[C@H](C(C)C)N(C)C(=O)[C@@H](NC(=O)[C@H]2CCCCN2C)C(C)(C)C)OC(C)=O)n1 [Tb106, Ethyl (2S,4R)-4-[({2-[(1R,3R)-1-acetoxy-3-{[(2S)-3,3-dimethyl-2-({[(2R)-1-methylpiperidin-2-yl]car-bonyl}amino)butanoyl](methyl)amino}-4-methylpentyl]-1,3-thiazol-4-yl}carbonyl)amino]-2-methyl-5-phenylpentanoate]",2.73 nM,2.73 nM,0.12 nM,0.12 nM,exceptional potencies,0.13 nM,0.13 nM,
"COC(=O)[C@@H](C)C[C@H](Cc1ccc2ccccc2c1)NC(=O)c1csc([C@@H](C[C@H](C(C)C)N(C)C(=O)[C@@H](NC(=O)[C@H]2CCCCN2C)C(C)C)OC(C)=O)n1 [Tb104, Methyl (2S)-4-{[(2-{1-acetoxy-4-methyl-3-[methyl(3-methyl-2-{[(1-methylpiperidin-2-yl)carbonyl]-amino}butanoyl)amino]pentyl}-1,3-thiazol-4-yl)carbonyl]amino}-2-methyl-5-(2-naphthyl)pentanoate]",,> 1000 nM,,9.5 nM,modest potency,,12.8 nM,
CC[C@H](C)[C@H](NC(=O)[C@H]1CCCCN1C)C(=O)N(C)[C@H](CCc1nc(C(=O)N[C@@H](Cc2ccccc2)C[C@H](C)C(=O)OC)cs1)C(C)C [PTb-D42],,,,,significant reduction in potency,,,
"COC(=O)[C@@H](C)C[C@H](Cc1ccccc1)NC(=O)c1csc([C@@H](C[C@H](C(C)C)N(C)C(=O)[C@H](NC(=O)[C@H]2CCCN2C)C(C(F)(F)F)C(F)(F)F)OC(C)=O)n1 [Tb86, Methyl (2S,4R)-4-[({2-[(1R,3R)-1-acetoxy-4-methyl-3-{methyl[(2R)-4,4,4-trifluoro-2-({[(2R)-1-meth-ylpyrrolidin-2-yl]carbonyl}amino)-3-(trifluoromethyl)butanoyl]amino}pentyl]-1,3-thiazol-4-yl}car-bonyl)amino]-2-methyl-5-phenylpentanoate]",,> 1000 nM,,> 1000 nM,,,> 1000 nM,
"COC(=O)[C@@H](CC(Cc1ccccc1)NC(=O)c1csc([C@@H](CC(C(C)C)N(C)C(=O)[C@@H](NC(=O)[C@H]2CCCCN2C)C(C)C)OC(C)=O)n1)NC(=O)OCc1ccccc1 (stereo in doubt) [Tb115, Methyl(2R,4R)-4-[({2-[(1R,3S)-1-acetoxy-4-methyl-3-{methyl[(2S)-3-methyl-2-{[(1-methylpiperidin-2-yl)carbonyl]amino}butanoyl]amino}pentyl]-1,3-thiazol-4-yl}carbonyl)amino]-2-{[(benzyloxy)carbonyl]amino}-5-phenylpentanoate]",13.8 nM,13.8 nM,0.02 nM,0.02 nM,,0.01 nM,0.01 nM,relatively potent (low nanomolar)
"CC(C)[C@@H](C[C@@H](O)c1nc(C(=O)N[C@@H](Cc2ccccc2)C[C@H](C)C(=O)O)cs1)N(C)C(=O)[C@H](CC(F)(F)F)NC(=O)[C@H]1CCCCN1C [Tb83, (2S,4R)-4-[({2-[(1R,3R)-1-Hydroxy-4-methyl-3-{methyl[(2S)-4,4,4-trifluoro-2-({[(2R)-1-methyl-piperidin-2-yl]carbonyl}amino)butanoyl]amino}pentyl]-1,3-thiazol-4-yl}carbonyl)amino]-2-methyl-5-phenylpentanoic acid]",,> 1000 nM,,> 1000 nM,,,> 1000 nM,
"COC(=O)CC12CC(NC(=O)c3csc([C@@H](C[C@H](C(C)C)N(C)C(=O)[C@@H](NC(=O)[C@H]4CCCCN4C)C(C)C)OC(C)=O)n3)(C1)C2 [Tb103, Methyl (3-{[(2-{1-acetoxy-4-methyl-3-[methyl(3-methyl-2-{[(1-methylpiperidin-2-yl)carbonyl]amino}-butanoyl)amino]pentyl}-1,3-thiazol-4-yl)carbonyl]amino}bicyclo[11.1.]pent-1-yl)acetate]",,22.6 nM,,2.74 nM,,,1.79 nM,
